Experimental data as given in patent US8987195B2 (priority 2012, dated 2015).
Read-outs that look alike come from different tables or passages of the source.

Experiments:
[1] = tested on: HCV genotype 1b replicon; experiment: HCV replicon assay, genotype 1b replicon EC50; type: cell-based, Hepatitis C virus; details: Hepatitis C virus, read-out: EC50 [gt-1b]
Summary of the method: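 Replicon cells (Neo^r, some luciferase:Neo^r fusion); G418 removed at plating; compound dilution series, 24-48 h. Readout: RNA by 32P-probe hybridization/protection or TaqMan, normalized to cyclophilin A RNA, or luciferase. EC50 vs DMSO control, 4-parameter fit.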

[2] = biological target: HCV NS3/4A protease genotype 1b (Hepatitis C virus genotype 1b, UniProt P26663); experiment: HCV NS3/4A protease time-resolved fluorescence (TRF) assay, Ki against genotype 1b; type: biochemical
Summary of the method: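 Enzyme 0.2 nM 1b / 0.4 nM A156T / 0.025 nM 3a; 30 min preinc. w/ cpd; 25 nM TRF peptide; 2.5 h RT; ex 340/em 615 time-delayed; 4-param IC50 → Ki = IC50/(1+[S]/KM).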

[3] = IC50 [gt-1b] (nM), NS3/4A genotype 1b, enzyme 0.2 nM
[4] = IC50 [gt-1b], NS3/4A protease TRF assay, genotype 1b enzyme 0.2 nM

Row | SMILES | EC50 ([1]; genotype 1b replicon) [pM] | IC50 [2, 3] [nM] | further results
1 | Cc1nc2c(F)cccc2c2c1O[C@]1(CC2)C[C@H]2C(=O)N[C@]3(C(=O)NS(=O)(=O)C4(C)CC4)C[C@H]3/C=C\CCCCC[C@H](NC(=O)OCC(C)C)C(=O)N2C1 [Example 147, 2-methylpropyl [(2R,6S,12Z,13aS,14aR,16aS)-7′-fluoro-5′-methyl-14a-{[(1-methylcyclopropyl)sulfonyl]carbamoyl}-5,16-dioxo-1,1′,2′,5,6,7,8,9,10,11,13a,14,14a,15,16,16a-hexadecahydrospiro[cyclopropa[e]pyrrolo[1,2-a][1,4]diazacyclopentadecine-2,3′-pyrano[2,3-c]quinolin]-6-yl]carbamate] | 1050 | 0.01 | –
2 | COCC1(S(=O)(=O)NC(=O)[C@@]23C[C@H]2/C=C\CCCCC[C@H](NC(=O)OCC(C)(C)C)C(=O)N2C[C@@]4(CCc5c(c(C(F)(F)F)nc6ccc(OC)cc56)O4)C[C@H]2C(=O)N3)CC1 [Example 496, 2,2-dimethylpropyl [(2R,65,12Z,13aS,14aR,16aS)-9′-methoxy-14a-({[1-(methoxymethyl)cyclopropyl]sulfonyl}carbamoyl)-5,16-dioxo-5′-(trifluoromethyl)-1,1′,2′,5,6,7,8,9,10,11,13a,14,14a,15,16,16a-hexadecahydrospiro[cyclopropa[e]pyrrolo[1,2-a][1,4]diazacyclopentadecine-2,3′-pyrano[2,3-c]quinolin]-6-yl]carbamate] | – | – | EC50 ([1]; HCV replicon, genotype 1b): 6930 pM; IC50 [2, 4]: 0.027 nM
3 | COc1ccc2nc(C(C)C)c3c(c2c1)CC[C@]1(C[C@H]2C(=O)N[C@]4(C(=O)NS(=O)(=O)C5(C)CC5)C[C@H]4/C=C\CCCCC[C@H](NC(=O)OC4(C)CCC4)C(=O)N2C1)O3 [Example 169, 1-methylcyclobutyl [(2R,6S,12Z,13aS,14aR,16aS)-9′-methoxy-14a-{[(1-methylcyclopropyl)sulfonyl]carbamoyl}-5,16-dioxo-5′-(propan-2-yl)-1,1′,2′,5,6,7,8,9,10,11,13a,14,14a,15,16,16a-hexadecahydrospiro[cyclopropa[e]pyrrolo[1,2-a][1,4]diazacyclopentadecine-2,3′-pyrano[2,3-c]quinolin]-6-yl]carbamate] | 1530 | 0.019 | –
4 | Cc1nc2ccccc2c2c1O[C@]1(CC2)C[C@H]2C(=O)N[C@]3(C(=O)NS(=O)(=O)C4(C)CC4)C[C@H]3/C=C\CCCCC[C@H](Nc3ncccn3)C(=O)N2C1 [Example 359, (2R,6S,12Z,13aS,14aR,16aS)-5′-methyl-N-[(1-methylcyclopropyl)sulfonyl]-5,16-dioxo-6-(pyrimidin-2-ylamino)-1,1′,2′,6,7,8,9,10,11,13a,14,15,16,16a-tetradecahydrospiro[cyclopropa[e]pyrrolo[1,2-a][1,4]diazacyclopentadecine-2,3′-pyrano[2,3-c]quinoline]-14a(5H)-carboxamide] | – | – | EC50 ([1]; HCV replicon, genotype 1b): 205000 pM; IC50 [2, 4]: 0.4 nM
5 | CC(C)(C)OC(=O)N[C@H]1CCCCC/C=C\C2CC2(C(=O)NS(=O)(=O)C2(C)CC2)NC(=O)C2C[C@]3(CCc4c(c(C5CC5)nc5ccc(F)cc45)O3)CN2C1=O (stereo partly drawn) [Example 68, tert-butyl [(2R,6S,12Z)-5′-cyclopropyl-9′-fluoro-14a-{[(1-methylcyclopropyl)sulfonyl]carbamoyl}-5,16-dioxo-1,1′,2′,5,6,7,8,9,10,11,13a,14,14a,15,16,16a-hexadecahydrospiro[cyclopropa[e]pyrrolo[1,2-a][1,4]diazacyclopentadecine-2,3′-pyrano[2,3-c]quinolin]-6-yl]carbamate] | 980 | 0.016 | –
6 | Cc1nc2ccc(OC(F)(F)F)cc2c2c1O[C@]1(CC2)C[C@H]2C(=O)N[C@]3(C(=O)NS(=O)(=O)C4(C)CC4)C[C@H]3/C=C\CCCCC[C@H](NC(=O)OCC(C)(C)C)C(=O)N2C1 [Example 297, 2,2-dimethylpropyl [(2R,6S,12Z,13aS,14aR,16aS)-5′-methyl-14a-{[(1-methylcyclopropyl)sulfonyl]carbamoyl}-5,16-dioxo-9′-(trifluoromethoxy)-1,1′,2′,5,6,7,8,9,10,11,13a,14,14a,15,16,16a-hexadecahydrospiro[cyclopropa[e]pyrrolo[1,2-a][1,4]diazacyclopentadecine-2,3′-pyrano[2,3-c]quinolin]-6-yl]carbamate] | 6060 | 0.009 | –
7 | CC1(S(=O)(=O)NC(=O)[C@@]23C[C@H]2/C=C\CCCCC[C@H](NC(=O)OC2(C4CC4)CC2)C(=O)N2C[C@@]4(CCc5c(c(C6CC6)nc6c(F)cccc56)O4)C[C@H]2C(=O)N3)CC1 [Example 191, 1,1′-bi(cyclopropyl)-1-yl [(2R,6S,12Z,13aS,14aR,16aS)-5′-cyclopropyl-7′-fluoro-14a-{[(1-methylcyclopropyl)sulfonyl]carbamoyl}-5,16-dioxo-1,1′,2′,5,6,7,8,9,10,11,13a,14,14a,15,16,16a-hexadecahydrospiro[cyclopropa[e]pyrrolo[1,2-a][1,4]diazacyclopentadecine-2,3′-pyrano[2,3-c]quinolin]-6-yl]carbamate] | 3590 | 0.012 | –
8 | COc1ccc2nc(C)c3c(c2c1)[C@H](F)C[C@]1(C[C@H]2C(=O)N[C@]4(C(=O)NS(=O)(=O)C5(C)CC5)C[C@H]4/C=C\CCCCC[C@H](NC(=O)OC4CCCC4)C(=O)N2C1)O3 [Example 373, cyclopentyl [(1′R,2S,6S,12Z,13aS,14aR,16aS)-1′-fluoro-9′-methoxy-5′-methyl-14a-{[(1-methylcyclopropyl)sulfonyl]carbamoyl}-5,16-dioxo-1,1′,2′,5,6,7,8,9,10,11,13a,14,14a,15,16,16a-hexadecahydrospiro[cyclopropa[e]pyrrolo[1,2-a][1,4]diazacyclopentadecine-2,3′-pyrano[2,3-c]quinolin]-6-yl]carbamate] | – | – | EC50 ([1]; HCV replicon, genotype 1b, K+ salt): 2670 pM; IC50 ([2]; IC50 [gt-1b], NS3/4A protease TRF assay, genotype 1b enzyme 0.2 nM, K+ salt): 0.011 nM
9 | Cc1nc2ccc(OCCN3CCOCC3)cc2c2c1O[C@]1(CC2)C[C@H]2C(=O)N[C@]3(C(=O)NS(=O)(=O)C4(C)CC4)C[C@H]3/C=C\CCCCC[C@H](NC(=O)OCC(C)(C)C)C(=O)N2C1 [Example 425, 2,2-dimethylpropyl {(2R,6S,12Z,13aS,14aR,16aS)-5′-methyl-14a-{[(1-methylcyclopropyl)sulfonyl]carbamoyl}-9′-[2-(morpholin-4-yl)ethoxy]-5,16-dioxo-1,1′,2′,5,6,7,8,9,10,11,13a,14,14a,15,16,16a-hexadecahydrospiro[cyclopropa[e]pyrrolo[1,2-a][1,4]diazacyclopentadecine-2,3′-pyrano[2,3-c]quinolin]-6-yl}carbamate] | – | – | EC50 ([1]; HCV replicon, genotype 1b): 3290 pM; IC50 [2, 4]: 0.024 nM
10 | COc1ccc2nc(C(F)(F)F)c3c(c2c1)[C@H](N1CCOCC1)C[C@]1(C[C@H]2C(=O)N[C@]4(C(=O)NS(=O)(=O)C5(C)CC5)C[C@H]4/C=C\CCCCC[C@H](NC(=O)OC(C)(C)C)C(=O)N2C1)O3 [Example 66, tert-Butyl((1′R,2R,6S,13aS,14aR,16aS,Z)-9′-methoxy-14a-(((1-methylcyclopropyl)sulfonyl)carbamoyl)-1′-morpholino-5,16-dioxo-5′-(trifluoromethyl) -1′,2′,3,5,6,7,8,9,10,11,13a,14,14a,15,16,16a-hexadecahydro-1H-spiro[cyclopropa[e]pyrrolo[1,2-α][1,4]diazacyclopentadecine-2,3′-pyrano[2,3-c]quinolin]-6-yl)carbamate] | 148 | 0.011 | –
11 | COc1ccc2nc(C(F)F)c3c(c2c1Cl)CC[C@]1(C[C@H]2C(=O)N[C@]4(C(=O)NS(=O)(=O)C5(C)CC5)C[C@H]4/C=C\CCCCC[C@H](NC(=O)OC(C)(C)C)C(=O)N2C1)O3 [Example 28, tert-Butyl [(2R,6S,12Z,13aS,14aR,16aS)-10′-chloro-5′-(difluoromethyl)-9′-methoxy-14a-{[(1-methylcyclopropyl)sulfonyl]carbamoyl}-5,16-dioxo-1,1′,2′,5,6,7,8,9,10,11,13a,14,14a,15,16,16a-hexadecahydrospiro[cyclopropa[e]pyrrolo[1,2-a][1,4]diazacyclopentadecine-2,3′-pyrano[2,3-c]quinolin]-6-yl]carbamate] | 14700 | 0.016 | –
12 | COc1ccc2nc(C3CC3)c3c(c2c1)CC[C@]1(C[C@H]2C(=O)N[C@]4(C(=O)NS(=O)(=O)C5(C)CC5)C[C@H]4/C=C\CCCCC[C@H](NC(=O)OCC(C)(C)C)C(=O)N2C1)O3 [Example 153, 2,2-dimethylpropyl [(2R,6S,12Z,13aS,14aR,16aS)-5′-cyclopropyl-9′-methoxy-14a-{[(1-methylcyclopropyl)sulfonyl]carbamoyl}-5,16-dioxo-1,1′,2′,5,6,7,8,9,10,11,13a,14,14a,15,16,16a-hexadecahydrospiro[cyclopropa[e]pyrrolo[1,2-a][1,4]diazacyclopentadecine-2,3′-pyrano[2,3-c]quinolin]-6-yl]carbamate] | – | – | EC50 ([1]; genotype 1b replicon, K+ salt): 1860 pM; IC50 ([2]; IC50 [gt-1b] (nM), NS3/4A genotype 1b, enzyme 0.2 nM, K+ salt): 0.014 nM
13 | Cc1nc2ccccc2c2c1O[C@]1(CC2)C[C@H]2C(=O)N[C@]3(C(=O)NS(=O)(=O)C4(C)CC4)C[C@H]3/C=C\CCCCC[C@H](NC(=O)OC3CCCC3)C(=O)N2C1 [Example 96, cyclopentyl [(2R,6S,12Z,13aS,14aR,16aS)-5′-methyl-14a-{[(1-methylcyclopropyl)sulfonyl]carbamoyl}-5,16-dioxo-1,1′,2′,5,6,7,8,9,10,11,13a,14,14a,15,16,16a-hexadecahydrospiro[cyclopropa[e]pyrrolo[1,2-a][1,4]diazacyclopentadecine-2,3′-pyrano[2,3-c]quinolin]-6-yl]carbamate] | 796 | 0.01 | –
